Results on four compounds are retold here after US20130317054A1, “NEURONAL NICOTINIC AGONIST AND METHODS OF USE” (ABBVIE INC., priority 2012, published 2013).

Each structure is given as a SMILES string.

Data set [1] relates to clinically stable subjects with schizophrenia. The data set is described as follows: Phase 2a Clinical Study A: Positive and Negative Syndrome Scale (PANSS). Type of data set: in vivo, human. The conditions noted are these: ITT or nonsmoker groups, throughout the study. An excerpt:
(§1) A Phase 2a proof-of-concept (POC) study in clinically stable subjects with schizophrenia who were clinically stable and received stable doses of atypical antipsychotic therapy. The study was a Phase 2, multi-center, randomized, double-blind, placebo-controlled, parallel group study designed to evaluate the safety and efficacy of doses of (4s)-4-(5-phenyl-1,3,4-thiadiazol-2-yloxy)-1-azatricyclo[3.3.1.1^3,7]decane (Compound A) in clinically stable male and female subjects (ages 20 to 55, inclusive) with a Diagnostic and Statistical Manual of Mental Disorders—Fourth Edition, Text Revision (DSM-IV-TR) diagnosis of schizophrenia. […] The criteria for clinical stability was determined by a combination of retrospective data (over the 4 months prior to the start of Screening, which will be supported by clinical records, patient, identified responsible contact person, and physician interviews), and prospective data assessed during the Prospective Stabilization Period of 28 to 42 days duration. […]
(§2) The primary endpoint was the MCCB composite score, and the primary endpoint analysis was the change on the MCCB composite score from baseline to endpoint versus placebo. Other secondary measures included the MCCB domains, the NSA-16, the CANTAB cognition battery (measured at different time points from the MCCB), and the UPSA-2. […]

Data set [2] has the same test system. The data set is described as follows: Phase 2a Clinical Study A: disposition of subjects and tolerability. Type of data set: in vivo, human. The conditions noted are these: for Primary reason for discontinuation: Adverse event: percentages based on treated subjects. An excerpt: (§3) A Phase 2a proof-of-concept (POC) study in clinically stable subjects with schizophrenia who were clinically stable and received stable doses of atypical antipsychotic therapy. The study was a Phase 2, multi-center, randomized, double-blind, placebo-controlled, parallel group study designed to evaluate the safety and efficacy of doses of (4s)-4-(5-phenyl-1,3,4-thiadiazol-2-yloxy)-1-azatricyclo[3.3.1.1^3,7]decane (Compound A) in clinically stable male and female subjects (ages 20 to 55, inclusive) with a Diagnostic and Statistical Manual of Mental Disorders—Fourth Edition, Text Revision (DSM-IV-TR) diagnosis of schizophrenia. Psychiatric diagnoses were confirmed using the Mini-International Neuropsychiatric Interview (MINI) version 6.0.0. The criteria for clinical stability was determined by a combination of retrospective data (over the 4 months prior to the start of Screening, which will be supported by clinical records, patient, identified responsible contact person, and physician interviews), and prospective data assessed during the Prospective Stabilization Period of 28 to 42 days duration.
(§4) The study was a Phase 2, multi-center, randomized, double-blind, placebo-controlled, parallel group study designed to evaluate the safety and efficacy of doses of (4s)-4-(5-phenyl-1,3,4-thiadiazol-2-yloxy)-1-azatricyclo[3.3.1.1^3,7]decane, which is also recognized as Compound A, in treating cognitive deficits in subjects with schizophrenia who were clinically stable and receiving one or two atypical antipsychotic medications. Study drug was administered orally.
(§5) The study consisted of a screening period of at least 28 and up to 42 days, a 84-day outpatient treatment period, a 14-day post-treatment period, and a post-treatment follow-up period. The screening period consisted of three visits: Screening Visit 1, Screening Visit 2, and Day −1. Upon completion of Day −1 procedures, eligible subjects were randomized through an Interactive Voice Response/Interactive Web-Based (IVR/IWB) system. Subjects were randomized in an equal ratio to one of three treatment groups (placebo, 10 mg Compound A, or 25 mg Compound A).
(§6) Subjects were randomized in a 1:1:1 ratio with placebo, 10 mg QD Compound A, of 25 mg Compound A. Each subject was instructed to take study drug once-daily in the morning for 12 weeks. Each daily dose was preferably taken with food. The subject and investigator were blinded to the treatment assignment throughout the study. The treatment assignments for the study subjects are shown below in Table 1.
Subjects completed 2 visits during the screening period. […]

The test system is the same in data set [3]. The data set is described as follows: Phase 2a Clinical Study A: CANTAB cognition battery. Type of data set: in vivo, human. The conditions noted are these: taken at different time points from the MCCB.
From the text: as §1, §2

Data set [4] shares this test system. The data set is described as follows: Phase 2a Clinical Study A: MATRICS Consensus Cognitive Battery (MCCB). Type of data set: in vivo, human. The conditions noted are these: for change from baseline to Week 12 in MCCB composite score (LS mean): ITT analysis, 12 weeks; for MCCB composite LS mean change from baseline to Week 12: subset of nonsmokers.
From the text: as §3, §4, §5, §6
(§7) The primary endpoint was the MCCB composite score, and the primary endpoint analysis was the change on the MCCB composite score from baseline to endpoint versus placebo. Other secondary measures included the MCCB domains, the NSA-16, the CANTAB cognition battery (measured at different time points from the MCCB), and the UPSA-2. The Positive and Negative Syndrome Scale (PANSS) was included to document stability in schizophrenia symptomatology.
The MCCB was developed by a consortium of academic, industry, the Food and Drug Administration (FDA) and National Institute of Mental Health (NIMH) members called Measurement and Treatment Research to Improve Cognition in Schizophrenia (MATRICS). The battery was established in a multiple phase process that involved experts identifying cognitive tests in the literature that had shown deficits in schizophrenia, use of factor analysis to identify key domains of cognitive deficits in schizophrenia, and then empirically identifying the best tests for each domain based on reliability, validity and feasibility for use in clinical trials. The FDA has endorsed the MCCB as an appropriate outcome measure for Phase 3 CDS trials. […]

Data set [5] has the same test system. The data set is described as follows: Phase 2a Clinical Study A: UCSD Performance-Based Skills Assessment-2 (UPSA-2). It counts as in vivo, human. Particulars: for UPSA-2 change from baseline score: placebo 2.6, not statistically significant.
From the text: as §3, §4, §5, §6, §7
The UCSD Performance-Based Skills Assessment-2 (UPSA-2) is a role-play test designed for subjects with schizophrenia to evaluate cognitive functional capacity in six selected domains of basic living skills. These areas include Organization/Planning, Financial Skills, Communication, Transportation, Household Management, and Medication Management. […] Scores were obtained for each subtest, and the total score was the sum of these subtests. […] The UPSA-2 required an average of 30 minutes to administer. The UPSA-2 was administered in on Days 14, 28, 56, 84 and 98.

Data set [6] shares this test system. The data set is described as follows: Phase 2a Clinical Study A: NSA-16 (negative symptoms). Type of data set: in vivo, human.
From the text: as §1, §2

The conditions of data set [7]: in vivo; cited from earlier work.
For data set [8], the system named is patients with schizophrenia. The conditions noted are these: cited from earlier work.
Data set [9] has as its system patients with schizophrenia. Particulars: cigarettes, sprays, patch; cited from earlier work.
[10] abbreviates: subset of smoking subjects, both dose groups (10 mg, 25 mg).
Setting [11] is: nonsmokers, dose group not stated.

`c1ccc(-c2nnc(O[C@@H]3C4CC5C[C@H]3C[N@](C5)C4)s2)cc1` [Compound A, (4s)-4-(5-phenyl-1,3,4-thiadiazol-2-yloxy)-1-azatricyclo[3.3.1.1^3,7]decane]: the “changes in the PANSS scores” value in data set [1] was “no significant changes”. Besides, the “Primary reason for discontinuation: Adverse event” value is given as 4 (5.8) n (%) in [2] (10 mg QD), 3 (4.5) n (%) in data set [2] (25 mg QD) and 7 (5.1) n (%) in data set [2] (Compound A overall). Besides, the “tolerability in subjects with schizophrenia” value in data set [2] (doses up to 25 mg QD, including 10 mg QD and 25 mg QD) is listed as “well tolerated”. In addition, the “Results of the CANTAB battery” value in data set [3] is “markedly similar to those of the MCCB”. The “change from baseline to Week 12 in MCCB composite score (LS mean)” value in [4] (10 mg QD oral, P=0.088 versus placebo (LS mean +0.50)) is on record as “+1.79”; in data set [4] (25 mg QD oral, P=0.067 versus placebo (LS mean +0.50)), “+2.02”. Moreover, the “effect on cognition in subjects with schizophrenia (summary)” value in data set [4] (driven by verbal learning, working memory and attention, consequence of the effect in nonsmoking subjects) is “procognitive effect”. Besides, the “MCCB social cognition domain, mean values across treatment groups” value in data set [4] (nonsmokers, 10 mg, 25 mg and placebo) is listed as “similar”. Moreover, the “MCCB all other domains with the exception of reasoning and problem solving, effect versus placebo” value in data set [4] (nonsmokers, active treatment groups, monotonic dose relationship) is “magnitude of effect was greater”. Further, the “MCCB composite LS mean change from baseline to Week 12” value in [4] (10 mg, P=0.021 compared to placebo (−0.7)) is “+2.1”; in data set [4] (25 mg, P=0.001 compared to placebo (−0.7)) it was “+4.5”. Also, in [4] (setting [10]), the “change from baseline scores on the MCCB composite and domain scores” value was “markedly similar to placebo”. Moreover, in [5] (ITT, either dose group (10 mg, 25 mg)), the UPSA-2 composite score result was “No significance”. Further, the “UPSA-2 change from baseline score” value in data set [5] (nonsmokers, 10 mg) was found to be 1.4; in data set [5] (nonsmokers, 25 mg) it was 3.9. Also, the “UPSA-2 effect size (Cohen's d) based on the raw data” value in data set [5] (setting [11]) is 0.13. In data set [5] (setting [11]), the “UPSA-2 model-based effect size” value is 0.23. Moreover, the “change from baseline scores on the UPSA-2” value in [5] (setting [10]) is on record as “markedly similar to placebo”. In data set [6] (human, in vivo), the “effect on negative symptoms of schizophrenia (summary)” value is given as “No effect”. For the same compound, the NSA-16 analyses result in data set [6] (nonsmoking subjects and subjects with predominant negative symptoms) is given as “did not reveal statistical significance”.
As for `O=C(N[C@H]1CN2CCC1CC2)c1cc2cccc(Cl)c2s1` [EVP-6124, N-[(3R)-1-azabicyclo[2.2.2]oct-3-yl]-7-chloro-1-benzothiophene-2-carboxamide], the “effect on the CogState test battery” value in data set [7] was “improvements”.
Regarding `COc1ccc(/C=C2\CCCN=C2c2cccnc2)c(OC)c1` [GTS-21], the “effect on the Repeatable Battery for the Assessment of Neuropsychological Status total scale” value in [8] was “positive effects”.
`CN1CCCC1c1cccnc1` (stereo not shown) [Nicotine, nicotine]: the neuropsychological performance entry in [9] was “improved”.
